{"source": "patent US7834148B2", "about": "“Protein phosphorylation imaging systems, methods of making phosphorylation imaging systems, and methods of use thereof” (Stanford University, priority 2006, dated 2010)", "key": {"Akt kinase activity [1]": {"tested_on": "Akt kinase activity", "experiment": "Akt kinase sensor (AS1T/AS1A) complemented FL activity, luminometer assay in transiently transfected BT474 cells", "assay_type": "cell-based, human", "settings": "BT474 transiently transfected with AS1T, 24 hours, at 50 μM, relative to carrier control, p<0.05", "description": "FL activity was determined by luminometer assays using cell lysates and normalized for protein content and transfection efficiency. LY treatment of BT474 cells transiently transfected with AS1T led to a dose dependent increase in FL activity in (1.3-fold maximum increase, p<0.05 at 50 μM, relative to carrier control treated cells).\n(§1) Transfections were performed in 80% confluent 24 hr-old cultures of 293T and BT474 cells. For transient transfection, 250 ng/well of pcDNA molar equivalent of each AS1A and AS1T were used in 12-well tissue culture plates and 5 μl Lipofectamine 2000 was used per transfection following the manufacturer's instructions. 5 ng of pcDNA3.1(+) vector expressing full length RL was co-transfected per well to normalize for transfection efficiency. […]\n(§2) In brief, transfected cells were lysed in 200 μl of ice-cold 1× passive lysis buffer supplied by Promega and were shaken for 15 mins on ice. […] RL activity was determined as described for FL activity, except 0.5 μg of coelenterazine dissolved in 100 μl of was used. Protein concentrations in cell lysates were determined by Bradford Assay (Bio-Rad). FL activities were normalized for protein content and for transfection efficiency using RL activity and expressed as relative light units per microgram protein per minute of counting (RLU/μg protein/min)."}, "Akt kinase activity [2]": {"tested_on": "Akt kinase activity", "experiment": "Akt kinase sensor complemented FL activity, bioluminescence imaging of intact 293T/AS1T and 293T/AS1A stable cells", "assay_type": "cell-based, human", "settings": "AS1T sensor", "description": "Complemented FL activity at each time point was determined by bioluminescence imaging of intact cells by addition of D-luciferin (FIG. 7a), prior to normalization for protein content (FIG. 7b).\nFL activities in intact cells were determined by bioluminescence imaging of intact cells as described above. Cells were lysed in 1% NP40 buffer (Cell Signaling, Beverly, Mass.) for 15 mins on ice followed by centrifugation at 1×10^4 g to remove cell debris. Protein concentrations were determined by Biorad protein Dc assay (Biorad). FL activities were normalized to protein content and then to that of carrier control treated cells and expressed as normalized FL activity±standard error of means (S.E.M.)"}, "Akt kinase activity [3]": {"tested_on": "Akt kinase activity", "experiment": "Akt kinase sensor complemented FL activity, luminometer assay in transiently transfected 293T cells", "assay_type": "cell-based, human", "description": "Next the hypothesis that activation of Akt activity would lead to increased phosphorylation of AKM and interaction with FHA2 in AS1T was tested, and subsequent inhibition of split FL complementation. 293T cells transiently transfected with AS1T and AS1A were treated with platelet derived growth factor (PDGF) for 30 minutes prior to analysis of FL activity.\nTo increase the dynamic range of AS1T for indirect monitoring of Akt kinase activity, the original FL fragments (NFL: 1-416/CFL: 398-550) were replaced with the optimal split FL sites (1-398/394-550) as AS2T. The corresponding FL fragments in AS1A were also replaced to create AS2A. 293T cells transiently transfected with AS2T or AS2A were treated with different concentrations of LY or carrier control for 24 hours prior to analysis of FL activity. […] To determine if the specificity of AS2 can be restored by using more rigid linkers, the flexible (G4S)3 linkers were replaced with (EAAAR)3 used for intramolecular folding sensors previously used to studying FRB/FKBP12 interactions. However, there was a loss of specificity in response to LY.\nas §1, §2"}, "[4]": {"tested_on": "insulin receptor substrate 1 (IRS-1) phosphorylation", "experiment": "Bioluminescence CCD imaging of split Firefly Luciferase IRS-1 phosphorylation sensor, CHO-IR cells implanted in living mice", "assay_type": "in vivo, nude mice", "settings": "mice with implanted sensor-transfected CHO-IR cells, 4 IU s.c. in twelve hour intervals, imaged 24 hours later", "description": "FIG. 5 illustrates a bioluminescence CCD imaging of a split Firefly Luciferase based Insulin Receptor Substrate 1 (IRS-1) phosphorylation sensor in a living mouse.\nFour nude mice were implanted with 5 million CHO-IR cells transiently transfected with the fusion split firefly IRS-1 phosphorylation sensor with linker (EAAAR)2 and also with 5 million CHO-IR mock-transfected cells at two separate sites. The mice were imaged using D-Luciferin (3 mg i.p.) with a CCD camera. Two mice were then given 4 IU human long-acting insulin (s.c.) in twelve hour intervals, and two were not given insulin and all four were imaged again 24 hours later. Consistent results were obtained in the 2 mice in each group with exposure to insulin leading to an increase in signal (˜5-fold induction) and lack of insulin exposure leading to minimal change (˜1.3 fold induction)."}, "[5]": {"tested_on": "insulin receptor substrate 1 (IRS-1) phosphorylation", "experiment": "Firefly Luciferase based IRS-1 phosphorylation sensor in transfected CHO-IR cells", "assay_type": "cell-based", "settings": "presence of insulin compared to no insulin exposure", "excerpt": "FIG. 4 is a graph of the activation of the Firefly Luciferase based IRS-1 phosphorylation sensor as a function of Insulin exposure. Results of CHO-IR cells transfected and co-transfected with a self-complementing Firefly Luciferase based IRS-1 sensor used for studying insulin mediated IRS-1 phosphorylation. A two-vector system, single fusion vector with and without a semi-rigid linker were all compared. Greater absolute signal is seen with the fusion vector strategies.\nNext, constructs were made using self-complementing split fragments of Firefly Luciferase with a semi-rigid linker or without any linker, and these were compared with two separate vectors (non-fusion approach) in CHO-IR cells in the presence and absence of insulin (FIG. 3). The results of these studies show signal from all three vectors in the presence of insulin, but the highest absolute signal is from the two fusion vectors. Furthermore, for the two fusion vectors the background signal is lowest (prior to insulin exposure) when using the fusion vector with a semi-rigid linker.\nThe fusion strategy increases absolute signal as compared to using two separate vectors. Furthermore, using a semi-rigid linker decreases background signal in the fusion vector strategy. […]"}, "[6]": {"tested_on": "insulin receptor substrate 1 (IRS-1) phosphorylation", "experiment": "Renilla Luciferase based IRS-1 phosphorylation sensor, luminometer assay in transfected CHO-IR cells", "assay_type": "cell-based", "settings": "24 h incubation, insulin 0, 25, 50 and 100 nM", "description": "FIG. 3 is a graph of the activation of the Renilla Luciferase based IRS-1 phosphorylation sensor as a function of Insulin concentration. Luminometer assay result of CHO-IR cells transfected with a phosphorylation sensor vector and assayed after 24 h of incubation with the addition of different concentrations of insulin (0, 25, 50 and 100 nM).\nThe IRS-1 phosphorylation sensor was tested based on split renilla and split Firefly Luciferase in transient transfection assays in cell culture with and without insulin. The single fusion vector (FIG. 2) was utilized with split Renilla Luciferase (split site 229, non-self complementing), with a semi-rigid peptide ((EAAAR)2 (SEQ ID NO: 36)) through screening of different peptides. The phosphorylation domain was the PTB peptide and was chosen to be an 13 amino acid peptide (SEQ ID NO: 28) including Y941 (tyrosine at position 941 of IRS-1). The substrate recognition domain was chosen to be the SH2 domain of PI3 Kinase. The vector constructed was transiently transfected in CHO-IR (expressing the insulin receptor) and 293T cells (not expressing the insulin receptor)."}}, "data": [{"compound": "O=c1cc(N2CCOCC2)oc2c(-c3ccccc3)cccc12", "note": "[LY, LY294002]", "values": [{"measurement": "maximum increase in FL activity", "setting": "Akt kinase activity [1]", "value": 1.3, "unit": "fold"}, {"measurement": "maximum induction (dynamic range of AS1T)", "setting": "Akt kinase activity [2]", "value": 4, "unit": "fold"}, {"measurement": "increase in FL activity with AS2T or AS2A compared to AS1T or AS1A", "setting": "Akt kinase activity [3]; 293T transiently transfected, LY for 24 hours, unpublished data", "value": 2, "unit": "fold"}]}, {"compound": "insulin", "values": [{"measurement": "increase in signal (induction)", "setting": "[4]", "value": "~5", "unit": "fold induction"}, {"measurement": "signal of split bioluminescence reporter IRS-1 sensor", "setting": "[5]", "value": "increased signal"}, {"measurement": "complemented Renilla Luciferase activity", "setting": "[6]", "value": "concentration dependent increase"}]}, {"compound": "platelet derived growth factor [PDGF]", "values": [{"measurement": "FL activity", "setting": "Akt kinase activity [3]; 293T transiently transfected with AS1A, 30 minutes treatment, p>0.05", "value": "did not significantly decrease"}, {"measurement": "decrease in FL activity", "setting": "Akt kinase activity [3]; 293T transiently transfected with AS1T, 30 minutes treatment, vs carrier control, p<0.05", "value": 60, "unit": "%"}]}]}
